The conditions of series [1]: in ethanol; cited from earlier work.
Series [2] is described as follows: Photophysical properties (absorption, fluorescence, singlet oxygen production, lifetimes) in ethanol. The settings on record: for ϕF fluorescence quantum yield: ±0.02, reference tetraphenylporphyrin in toluene; for ϕΔ quantum yield (singlet oxygen production): ±0.05, reference Rose Bengal in ethanol; for τF fluorescence lifetime: ±0.1 ns; for τΔ singlet oxygen lifetime: ±1 μs. It counts as physicochemical. The protocol:
The absorption spectra were measured with a UV-3600 double beam UV-visible spectrophotometer (Shimadzu, Marne La Vallée, France). The fluorescence spectra were measured with a Fluorolog FL3-222 spectrofluorimeter (Horiba Jobin Yvon, Longjumeau, France) equipped with a 450 W xenon arc lamp, with a thermostated (25° C.) cuvette holder compartment, with an R928 UV-visible photomultiplier (Hamamatsu, Japan) and with a liquid nitrogen-cooled InGaAs infrared detector (DSS-16A020L Electro-Optical System Inc, Phoenixville, PA, USA). The excitation beam is diffracted by a SPEX double-grating monochromator (1200 lines/mm blazed at 330 nm). The fluorescence was measured by the UV-visible detector via the SPEX double-grating emission monochromator (1200 lines/mm blazed at 500 nm). The production of singlet oxygen was measured by the infrared detector via the SPEX double-grating emission monochromator (600 lines/mm blazed at 1 μm) and a high-pass filter at 780 nm. All the spectra were measured using 4-face quartz cuvettes. All the emission spectra (singlet-oxygen fluorescence and luminescence) were related back to the same absorbance (less than 0.2) with the lamp and photomultiplier corrections.
The fluorescence quantum yield was determined by equation (1):
[formula] where Φf and Φfo, If and Ifo, OD and ODo, n and no, are the quantum yields, the fluorescence intensities, the optical densities, and the refractive indices of the sample and of the reference respectively.
The reference used for the calculation of the fluorescence quantum yield is tetraphenylporphyrin in toluene with a φfo of 0.11.
The quantum yield for singlet oxygen production is determined by equation (2):
[formula] where ΦΔ and ΦΔo, I and Io, OD and ODo are the quantum yields for singlet oxygen production, the singlet oxygen production intensities and the optical densities of the sample and of the reference respectively.
The reference used for the calculation of the quantum yield for singlet oxygen production is Rose Bengal in ethanol with a φΔo of 0.68.
The fluorescence lifetime experiments were carried out using, for the excitation, a pulsed laser diode emitting at 407 nm (LDH-P-C-400M, FWHM<70 ps, 1 MHz) coupled to a PDL 800-D pulse generator (PicoQuant GmbH, Berlin, Germany) and, for the detection, an SPCM-AQR-15 avalanche photodiode (EG & G, Vaudreuil, Canada) coupled to a high-pass filter at 650 nm.
The acquisition was carried out using a PicoHarp 300 module linked to a PHR-800 4-channel router (PicoQuant GmbH, Berlin, Germany). The fluorescence declines were recorded using the single photon counting method (Time Correlated Single Photon Counting TCSPC). The data were collected until 1000 accumulated counts in a channel were obtained, then analyzed using the TCSPC Fluofit software (PicoQuant GmbH, Berlin, Germany) based on an iterative reconvolution using a Levensberg-Marquandt algorithm which allows multiexponential declines to be obtained.
The singlet oxygen lifetime measurements were carried out with a Tempro-01 spectrophotometer (Horiba Jobin Yvon, Longjumeau, France) composed of a SpectraLED-415 pulsed excitation diode emitting at 415 nm, of a cuvette holder compartment, of an emission monochromator of Seya-Namioka type (600-2000 nm) and of an H10330-45 thermoelectrically regulated near infrared photomultiplier tube (Hamamatsu, Japan). The assembly is controlled by the FluoroHub-B counting module and the DataStation and DAS6 software (Horiba Jobin Yvon).
The emission spectra and the phosphorescence lifetime measurements were carried out with a Fluorolog FL3-22 spectrofluorimeter (Horiba Jobin Yvon, Longjumeau, France) equipped with a 450 W continuous xenon lamp, with a xenon flash lamp, with a thermostated (25° C.) cuvette holder compartment and with an R928 UV-visible photomultiplier (Hamamatsu, Japan). The assembly is controlled by the FluoroHub-B counting module. […]

Regarding `O=C([O-])c1c(Cl)c(Cl)c(Cl)c(Cl)c1-c1c2cc(I)c(=O)c(I)c-2oc2c(I)c([O-])c(I)cc12.[Na+].[Na+]` [Rose Bengal], the “φΔo quantum yield for singlet oxygen production of the reference” value in series [1] was 0.68.

Turning to pyropheophorbide-a [Pyro(a)-COOH], in series [2], the “εQI (molar extinction coefficient, QI band)” value is reported as 33 265 L · mol^−1 · cm^−1; the “εsoret band (molar extinction coefficient)” value was 76 326 L · mol^−1 · cm^−1; the “λQI (QI band absorption peak)” value is reported as 668 nm; the “ϕF fluorescence quantum yield” value is 0.34. Also, in series [2], the “ϕΔ quantum yield (singlet oxygen production)” value was determined as 0.52, the τF fluorescence lifetime was determined as 6.7 ns and the “τΔ singlet oxygen lifetime” value is 13 μs.

Regarding pheophorbide-a [Pheo(a)-COOH], in series [2], the “εQI (molar extinction coefficient, QI band)” value was 32 537 L · mol^−1 · cm^−1; the “εsoret band (molar extinction coefficient)” value is 69 663 L · mol^−1 · cm^−1; the “λQI (QI band absorption peak)” value came out at 667 nm; the “ϕF fluorescence quantum yield” value came to 0.44. In addition, in series [2], the “ϕΔ quantum yield (singlet oxygen production)” value is given as 0.52, the τF fluorescence lifetime is 5.7 ns and the “τΔ singlet oxygen lifetime” value was 12 μs.

Values taken from patent publication US11975072B2, “Pyropheophorbide conjugate and use thereof in the treatment of cancer and as a fluorescent marker” (INSERM (INSTITUT NATIONAL DE LA SANTÉ ET DE LA RECHERCHE …, priority 2017, dated 2024).
